A short description of data set [1]: Soil washing: amount of oil removed from contaminated sand. On the procedure:
Oil-contaminated soil was prepared in the following manner. North Sea crude oil (2.4 to 2.6 g) (Chevron, San Ramon, Calif., USA) was poured into a beaker. Tetrahydrofuran (THF) (to dissolution, approximately 50 mL) was added and the beaker and its contents were swirled to dissolve the oil. Ottawa sand (60 g) (EMD Chemicals, Gibbstown N.J., USA) was poured into the beaker and the contents of the beaker was swirled again. The beaker was left uncovered overnight at room temperature to allow the THF to evaporate. Then, the sand was broken up and mixed in the beaker. The beaker was left uncovered for a further time period so that total elapsed time for evaporation was 24 hours. The contaminated sand was then poured into a pre-weighed petrie dish, which was then placed into an oven at 110° C. and heated for 24 hours. After the petrie dish was removed from the oven and had cooled to room temperature, the sample and dish were weighed together. The contaminated sand was then transferred to a 100 mL amber vial for storage. This heat treatment was intended to simulate weathering of the contaminated soil. This procedure provided a sample of soil with 3.0 wt % oil contamination.
A 0.5 wt % surfactant solution was prepared in the following manner: surfactant (0.25 g) was added to a 50 mL volumetric flask. Deionized water at room temperature was added to achieve a total mass of 50 g. Sonication of the solution assisted with dissolving the surfactant.
A 0.5 wt % surfactant solution was prepared in the following manner: Deionized water was heated to 50° C. Surfactant (0.25 g) was added to a 50 mL volumetric flask. The heated water was added to achieve a total mass of 50 g. Swirling and shaking of the flask was sufficient to dissolve the surfactant.
A 0.1 wt % surfactant solution was also prepared using the above-described procedure wherein 0.0583 g of surfactant was used.
The contaminated sand of Example 7A was washed in the following manner. Three 20 mL vials were labelled and their empty masses were, recorded. Contaminated sand (5.1 g) was added to each vial and the vial's new masses were recorded. The surfactant solution was added to each vial using a syringe to achieve 10 g of solution. A stir bar was also added. The vials were capped with TEFLON®-lined lids and shaken manually for 20 seconds. The vials were placed in a beaker, to keep them upright. The beaker was placed on a stir plate and the vials were stirred at 470 rpm for 1 hour. Each vial was then manually shaken for 20 seconds. Then the stirring was continued for a second hour. The liquid portion of the samples was poured into separate 20 mL vials and is referred to below as “first decant solution”. The original vials (and their remaining contents) were each rinsed with 50 mL of deionized water and that rinse water was then added to 50 mL Wheaton jars and is referred to below as “wash solution”.
Sand washing was also carried out at elevated temperature by following the procedure as described in Example 7D with the difference that vials were placed into a 50° C. water bath. The water bath was placed on a stirring hot plate and was maintained 50° C. and the vials were stirred at 470 rpm for 1 hour. Each vial was then manually shaken for 20 seconds. Then the stirring was continued for a second hour. The liquid portion of the samples was poured into separate 20 mL vials and is referred to below as “first decant solution”. The original vials were each rinsed with 50 mL of deionized water and that rinse water was then added to 50 mL Wheaton jars and is referred to below as “wash solution”.
Oil remaining on the soil of Examples 7A-E was quantified in the following manner. An extraction was performed using 10 mL of a 1:1 dichloromethane:hexanes liquid mixture. This mixture was added to vials housing washed sand (the term “washed sand” refers to 5.1 g of contaminated sand from Example 7A that has been washed and rinsed using the procedures of Example 7D or 7E). […]

Data set [2] can be described thus: Switchability using DMSO-d6 (CO2 bubbling, 1H NMR). It counts as physicochemical. Particulars: 0.01 M solution in DMSO-d6, non-aqueous. An excerpt: (§1) Since n-octyl 4-hydroxy-3-nitrobenzoate (1N) and the […] salt of (1A) are soluble in DMSO and have some characteristic signals in the ^1H NMR spectrum, […] was used as a solvent to monitor the non-aqueous switchability by NMR spectroscopy.

The nature of data set [3]: Solubility observations (aqueous solution, DMSO). It counts as physicochemical. The conditions noted are these: DMSO.
Text: The following study confirmed that compounds (1A) and (1N) reversibly convert from the neutral form (1N) to the anionic form (1A) and back to the neutral form over and over again with substantially no loss of product. The conversion was verified visually since the neutral form was not soluble in aqueous solution and appeared as a white precipitate in colourless liquid while the anionic form was fully soluble in aqueous solution and appeared as a clear yellow liquid (see FIG. 2). In addition to visual examination, ^1H NMR studies that are described below confirmed the presence of the hydroxyl proton in the spectra of the neutral form.
as §1

Where [4] appears, read: 50° C. Washing, 0.5 wt % surfactant solution.
The mark [5] stands for this setting: Room Temperature Washing, 0.5 wt % surfactant solution.

These results are taken from US20110124745A1, “Switchable Anionic Surfactants and Methods of Making and Using Same” (priority 2009, published 2011).

For the compound `CCCCCCCCCCCCOS(=O)(=O)[O-].[Na+]` [Sodium Dodecyl Sulfate (SDS), Sodium Dodecyl Sulfate], the “Amount of oil removed from sand” value turned out to be 86% in data set [1] (setting [4]); 40% in data set [1] (Room Temperature Washing, 0.5 wt % surfactant solution, Sulfate); 40% in data set [1] (Room Temperature Washing, 0.5 wt % surfactant solution, listed as sodium dodecyl sulfate (SDS), Sulfate).

`CCCCCCCCOC(=O)c1ccc(O)c([N+](=O)[O-])c1.[Na]` [Sodium octyl 4-hydroxy-3-nitrobenzoate]: the “Amount of oil removed from sand” value in data set [1] (50° C. Washing, 0.1 wt % surfactant solution) was 94%; in data set [1] (setting [4]) it was 94-97%; in data set [1] (setting [5]), 82%.

With Triton X-100, the “Amount of oil removed from sand” value turned out to be 94% in data set [1] (setting [4]) and 68% in data set [1] (setting [5]).

For the compound “potassium 4-hydroxy-3-nitrobenzoate [potassium salt of (1A)]”, the “conversion on CO2 bubbling by 1H NMR” value in data set [2] is reported as “no conversion was apparent”. Moreover, the “solubility in DMSO” value in data set [3] is reported as “soluble”.
